Results as given in ChEMBL document CHEMBL1139964, “Biopartitioning micellar chromatography to predict mutagenicity of aromatic amines” (Eur J Med Chem, 2007).
In brackets after ≈: the same amount, converted by molar mass.

Columns and labels:
[1] = Solubility in water; type: physicochemical; details: buffer
[2] = Partition coefficient, log P of the compound; type: physicochemical; details: octanol/water

SMILES	Solubility [1]	logP [2]
Nc1ccc2c3c(cccc13)-c1ccccc1-2	0.715 g/L (≈ 3.29 mM)	–
Nc1c(Br)cc([N+](=O)[O-])cc1[N+](=O)[O-]	–	2.73
Nc1cccc2cc3ccccc3cc12	2.59 g/L (≈ 13.4 mM)	–
Nc1ccc2c(c1)Cc1ccccc1-2	8.78 g/L (≈ 48.4 mM)	–
Nc1ccc(Cc2ccc(N)cc2)cc1	1 10^3g/L	–
Nc1ccc2cc3ccccc3cc2c1 [2-AMINOANTHRACENE]	1.3 g/L (≈ 6.73 mM)	2.62
Nc1ccc(Br)cc1 [4-BROMOANILINE]	707 g/L (≈ 4110 mM)	–
Nc1ccc2ccc3cccc4ccc1c2c34 [AMINOPYRENE]	0.576 g/L (≈ 2.65 mM)	4.99
Cc1cc(-c2ccc(N)c(C)c2)ccc1N [ORTHOTOLIDINE]	1.3 10^3g/L	–
